This passage reports koff results from BindingDB's records for doi:10.1016/j.bmc.2021.116291 (Fudan University School of Pharmacy, 2021).

As usually defined, the koff is a measure of how fast the partners let go of each other.

This experiment addresses Glucagon-like peptide 1 receptor (Homo sapiens, UniProt P43220). The experiment in a line: Binding affinity to GLP1R (unknown origin) assessed as dissociation rate constant by surface plasmon resonance analysis. Background: In SPR one partner is held on a chip, and binding of the other changes the refractive index at the surface.

Sequence of Glucagon-like peptide 1 receptor (P43220 whole entry): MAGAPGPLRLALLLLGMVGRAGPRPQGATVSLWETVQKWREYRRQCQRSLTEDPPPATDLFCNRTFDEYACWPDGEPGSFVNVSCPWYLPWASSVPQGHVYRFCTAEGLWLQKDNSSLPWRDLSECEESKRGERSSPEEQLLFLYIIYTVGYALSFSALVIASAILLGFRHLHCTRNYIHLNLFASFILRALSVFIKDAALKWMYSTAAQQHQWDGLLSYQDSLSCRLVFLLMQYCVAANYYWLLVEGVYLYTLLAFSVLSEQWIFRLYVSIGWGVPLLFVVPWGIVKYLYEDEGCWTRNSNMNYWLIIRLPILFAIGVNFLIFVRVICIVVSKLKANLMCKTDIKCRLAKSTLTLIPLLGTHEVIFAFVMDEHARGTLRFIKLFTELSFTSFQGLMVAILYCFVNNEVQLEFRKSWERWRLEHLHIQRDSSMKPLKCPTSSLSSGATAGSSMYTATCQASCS

Regarding `CCCCCCCCCCCC(=O)N[C@@H](CCC(=O)NCCCC[C@H](NC(=O)CC[C@H](NC(=O)CCCCCCCCCCC)C(=O)O)C(=O)NCCOCCOCC(=O)NCCOCCOCC(=O)O)C(=O)O`, the koff was determined as 0.00857 s⁻¹.

Consider `CCCCCCCCCCCC(=O)N[C@@H](CCC(=O)NCCCC[C@H](NC(=O)CC[C@H](NC(=O)CCCCCCCCCCC)C(=O)O)C(=O)NCCOCCOCC(=O)O)C(=O)O`, for which the koff came out at 0.0065 s⁻¹.

In the case of `CCCCCCCCCCCC(=O)N[C@@H](CCC(=O)NCCCC[C@H](NC(=O)CC[C@H](NC(=O)CCCCCCCCCCC)C(=O)O)C(=O)NCCOCCOCC(=O)NCCOCCOCC(=O)NCCOCCOCC(=O)O)C(=O)O`, the koff amounted to 0.0237 s⁻¹.
